# From PMC9292235, “Pharmacokinetics and Metabolism of Ziritaxestat (GLPG1690) in Healthy Male Volunteers Following Intravenous and Oral Administration” (Clinical Pharmacology in Drug Development, 2021)
# “Also recorded” adds a separate entry of the source.
# How the values were obtained:
# [1] = Metabolite profiling and identification in plasma, urine and feces; assay type: in vivo, human; details: for Mean Feces Region of Interest: components of one region share its value
# Procedure: (§1) Whole blood and plasma samples for total radioactivity and plasma sample concentrations of ziritaxestat were collected before dosing and at 0, 0.25, 0.5, 1, 1.5, 2, 3, 4, 6, 8, 10, 24, 48, 72, 96, 120, 144, 168, 192, and 216 hours after dosing. Plasma samples for metabolite identification and quantification were collected before dosing and at 1, 3, 6, 24, 48, 72, 96, and 144 hours after dosing. Urine and fecal samples for total radioactivity, metabolite identification, and quantification were collected before dosing through to 216 hours after dosing. Structural identification was attempted on any radioactive component that represented ≥10% of the circulating radioactivity in plasma or that accounted for >10% of the dose in ≥1 fecal and urine samples.
# [2] = Part 1 absolute bioavailability: plasma PK after oral 600 mg ziritaxestat and 15-minute IV infusion of 100 μg 14C-ziritaxestat microtracer; assay type: in vivo, human; details: for F AUCt (absolute bioavailability) / F AUC∞ (absolute bioavailability): oral 600 mg vs IV 100 μg 14C-ziritaxestat; for F AUCt (absolute bioavailability): dose-normalized AUCt; for F AUC∞ (absolute bioavailability): dose-normalized AUC∞
# Description: Part 1 of the study was designed to assess the absolute bioavailability of ziritaxestat. An IV microtracer, a well‐established technique, was used.[21], [22] This design involved a 15‐minute infusion of a subtherapeutic 100‐μg IV ziritaxestat dose labeled with a microtracer (≤1000 nCi) of ^14C radioactivity, dosed at an anticipated time to reach maximum plasma concentration (tmax) of a preceding unlabeled therapeutic (600‐mg) oral dose (administered as three 200‐mg film‐coated tablets). The low‐dose IV formulation means that nonclinical local tolerability and IV toxicology studies can generally be avoided,[21], [22] which can be preferable when developing a single, fit‐for‐purpose IV formulation. Administering the IV microdose at tmax of the unlabeled therapeutic (600‐mg) oral dose of ziritaxestat ensured that the PK of the microdose remained representative of the therapeutic dose.
# Given the low (microgram) levels of ziritaxestat expected in plasma, liquid chromatography–accelerated mass spectrometry (LC‐AMS) was used to quantify levels of ^14C‐ziritaxestat, whereas accelerated mass spectrometry (AMS) was used to quantify total radioactivity following the IV dose, achieving a lower limit of quantification (LLOQ) of 0.110 ng eq/mL and 0.0069 ng eq/mL, respectively. Concentrations of unlabeled parent in plasma were measured using liquid chromatography with tandem mass spectrometry (LC‐MS/MS), with an LLOQ of 1.00 ng/mL.
# Subjects were admitted to the clinic on day –1 (the evening before dosing) and remained onsite until 72 hours after dosing. On the morning of day 1, 30 minutes after the start of a standard breakfast, subjects received a single oral dose of 600‐mg ziritaxestat, followed 3.25 hours later by a 15‐minute IV infusion of 100 μg of ^14C‐ziritaxestat. Plasma samples for ziritaxestat concentrations were collected before dosing and at 0.25, 0.5, 1, 1.5, 2, 3, 3.25, 4, 5, 6, 8, 10, 12, 24, 48, and 72 hours after the oral dose. In addition, plasma samples for ^14C‐ziritaxestat, total radioactivity, and metabolite profiling were collected at 3.25, 3.33, 3.5, 3.75, 4, 4.25, 4.75, 5.25, 6, 7, 8, 10, 12, 24, 48, and 72 hours after the oral dose.
# (§2) Concentrations of ziritaxestat in human lithium heparin plasma samples were determined for both study parts by using an LC‐MS/MS method validated according to the requirements of the US Food and Drug Administration's Guidance for Industry and the European Medicines Agency's guidance on bioanalytical methods. The method involved isolating ziritaxestat and ziritaxestat‐d8 (internal standard) from 20 μL of human lithium heparin plasma by solid‐phase extraction performed on a CUBCX1 100‐mg 1‐mL cartridge (Screening Devices, Amersfoort, Netherlands). The extract sample was then evaporated to dryness under a stream of nitrogen at +50°C. The residue was reconstituted with 0.3 mL of a mixture of 25% acetonitrile in purified water containing 0.01% of ammonium hydroxide. Ten microliters of the clear supernatant were injected into the high‐performance liquid chromatography system (Shimadzu, Kyoto, Japan), operating in isocratic elution mode. Chromatographic separation was performed on an XBridge C18 column (100 × 4.6 mm, 3.5 μm; Waters Corp., Milford, Massachusetts). The aqueous mobile phase consisted of a mixture of 46.75% acetonitrile in purified water containing 0.02% of ammonium hydroxide. An API 4000 LC‐MS/MS system (SCIEX, Toronto, Canada) equipped with a TurboIonSpray probe operating in multiple‐reaction monitoring mode in positive mode was used for quantification. The precursor‐to‐product ion pairs at the mass‐to‐charge ratio were 589 to 256 and 597 to 264 for ziritaxestat and its internal standard, respectively.
# Total radioactivity plasma concentrations for part 1 were determined using AMS analysis on a 1‐MV multielement accelerated mass spectrometer, model 4110 Bo (High Voltage Engineering Europa, Amersfoort, the Netherlands). […]
# [3] = Part 2: plasma and whole blood PK after a single oral 600-mg dose of 14C-ziritaxestat; assay type: in vivo, human; details: ziritaxestat in plasma, single oral 600 mg 14C-ziritaxestat
# Description: Part 2 of the study assessed the mass balance, routes of elimination, and metabolite profile of ziritaxestat following a single, oral 600‐mg dose (administered as two 300‐mg active pharmaceutical ingredients‐in‐capsule) of ^14C‐ziritaxestat.
# Subjects were admitted on the evening before dosing (day –1 of part 2), allowing a minimum 7‐day washout in oral drug administration between parts 1 and 2. On the morning of day 1, subjects received a single oral dose of ^14C‐ziritaxestat, equivalent to 600 mg of ziritaxestat. […] Subjects stayed in the clinical study center no longer than day 10 (216 hours after dosing).
# as §1
# Total radioactivity was measured via liquid scintillation counting, achieving an LLOQ of 306 ng eq/mL (plasma), 216 ng eq/mL (whole blood), 17 ng eq/g (urine), and 161 ng eq/g (feces). Concentrations of parent in plasma were measured using LC‐MS/MS, with an LLOQ of 1.00 ng/mL.
# as §2
# PK analysis was performed using standard noncompartmental methods (Phoenix WinNonlin version 9.4; Pharsight, Certara, Princeton, New Jersey). […] In part 2, the following mass balance parameters were determined: cumulative amount of total radioactivity excreted in urine up to t, cumulative amount of total radioactivity excreted in feces up to t, amount of total radioactivity excreted in urine as a percentage of administered radioactivity, and amount of total radioactivity excreted in feces as a percentage of administered radioactivity. AUC was calculated by the linear up‐logarithmic down‐trapezoid rule, CL was calculated as dose/AUC, Vd(area) was calculated as CL/λz, and F was calculated as dose‐normalized ziritaxestat oral AUC/^14C‐ziritaxestat IV AUC.
# [4] = Estimation of oral bioavailability fractions (fa, fg, fh); assay type: in vivo, human
# Description: Contribution to clearance from nonhepatic routes was assumed to be minimal. fg was estimated assuming Fg=F/Fa/Fh .
# [5] = Safety assessments (AEs, laboratory tests, vital signs, ECG); assay type: in vivo, human; details: parts 1 and 2
# Procedure: Safety assessments included adverse events (AEs), clinical laboratory tests (clinical chemistry, hematology, urinalysis), vital signs, 12‐lead electrocardiograms (ECGs), and physical examinations. AEs were recorded from the first dose until study discharge, and at the follow‐up call. Any adverse experiences recorded between the time of informed consent and the first dose were recorded with the medical history. AEs and medications were coded using the Medical Dictionary for Regulatory Activities version 21.1.
# CYP2C8 = details: background data in introduction, no reference given, cited from earlier work
# CYP3A4/5 = details: human liver microsomes and probe substrates; weak inhibition; background data in introduction, no reference given; read-out: half maximal inhibitory concentration; cited from earlier work
# CYP3A4 [6] = details: human recombinant CYP, background data in introduction, no reference given, cited from earlier work
# CYP3A4 [7] = details: 0.1 to 30 μM incubated with human hepatocytes; background data in introduction, no reference given; cited from earlier work
# CYP1A2 = details: 0.1 to 30 μM incubated with human hepatocytes; background data in introduction, no reference given; cited from earlier work
# [8] = feces, single oral 600 mg 14C-ziritaxestat
# [9] = human, ziritaxestat in plasma, oral 600 mg, n = 6, mean (SD)
# [10] = mean (SD), listed as ziritaxestat
smiles,measurement,setting,value
CCc1nc2c(C)cc(N3CCN(CC(=O)NCC(=O)O)CC3)cn2c1N(C)c1nc(-c2ccc(F)cc2)c(C#N)s1 [M590],Mean Feces Region of Interest,[1]; [8],25.3%
CCc1nc2c(C)cc(N3CCN(CC(=O)O)CC3)cn2c1N(C)c1nc(-c2ccc(F)cc2)c(C#N)s1 [M533],Mean Feces Region of Interest,[1]; [8],25.3%
CCc1nc2c(C)cc(N3CCN(CC(=O)N4CC(O)C4)CC3)cn2c1N(C)c1nc(-c2ccc(F)cc2)c(C#N)s1 [Ziritaxestat],AUC(0-inf),[2]; [9],40000 ng·h/mL
same,AUC(0-t),[2]; [9],40000 ng·h/mL
same,Cmax,[2]; [9],8400 ng/mL
same,half-life,[2]; [9],7 h
same,Tmax,"[2]; human, ziritaxestat in plasma, oral 600 mg, n = 6, median (range)",3.25 h
same,F AUCt (absolute bioavailability),[2]; mean (SD),54.4 (5.2) %
same,F AUCt (absolute bioavailability),[2]; [10],54%
same,F AUC∞ (absolute bioavailability),[2]; mean (SD),51.1 (4.8) %
same,F AUC∞ (absolute bioavailability),[2]; [10],51%
same,CL/F,"[2]; ziritaxestat in plasma, oral 600 mg, n = 6, mean (SD)",16.3 (4.6) L/h
same,AUC(0-inf),"[3]; human, n = 5, mean (SD)",50500 ng·h/mL
same,half-life,"[3]; human, n = 5, mean (SD)",10.6 h
same,AUC(0-t),"[3]; human, n = 6, mean (SD)",49100 ng·h/mL
same,Cmax,"[3]; human, n = 6, mean (SD)",10700 ng/mL
same,AUC,"[3]; human, n = 6, mean (SD), read-out: AUC24",47900 ng·h/mL
same,Tmax,"[3]; human, n = 6, median (range)",1.75 h
same,CL/F,"[3]; n = 5, mean (SD)",13.2 (4.6) [n = 5] ^c L/h
same,Parent as share of total radioactivity (drug-related material) recovered in feces,"[1]; feces, oral 600 mg 14C-ziritaxestat",17.6%
same,Mean Feces Region of Interest,[1]; [8],17.6%
same,Share of circulating radioactivity in plasma,"[1]; plasma, metabolite profile / mass spectrometry analysis, oral 600 mg 14C-ziritaxestat",76%
same,Mean Plasma Region of Interest,"[1]; plasma, single oral 600 mg 14C-ziritaxestat",76.2
same,fg (fraction of drug surviving gut metabolism),[4]; Fg = F/Fa/Fh,69%
same,fh (fraction of drug surviving hepatic elimination),"[4]; Fh = 1 - Eh, Eh = ClIV/Qh, Qh 1450 mL/min",91%
same,Hepatic extraction ratio (first-pass loss),"[4]; human, in vivo",9%
same,frem (fraction of drug remaining to be eliminated),"[4]; human, in vivo",14%
same,"Effects on laboratory, vital signs, or ECG parameters",[5],no clinically meaningful effects
same,Intensity of TEAEs,[5],mild
same,Relation of TEAEs to treatment as assessed by the investigator,[5],not considered to be related to the study drug; also recorded: not treatment related
same,Serious AEs or AEs leading to discontinuation or interruption of dosing,[5]; healthy male subjects,no serious AEs or AEs leading to discontinuation or interruption of dosing
same,Number of treatment-emergent AEs (TEAEs),[5]; reported in 5 subjects,7
same,half maximal inhibitory concentration fold shift,"CYP2C8; CYP2C8-mediated metabolism, preincubation with ziritaxestat in the absence and presence of NADP, time-dependent inhibition",2.49
same,IC50,"CYP2C8; human liver microsomes and probe substrates, weak inhibition, read-out: half maximal inhibitory concentration",2100 nM
same,IC50,CYP3A4/5,3700 nM
same,Enzyme primarily responsible for metabolism,CYP3A4 [6],primarily metabolized by CYP3A4
same,Contribution to metabolism from other phase 1 enzymes (maximum),CYP3A4 [6]; enzymes other than CYP3A4,≤ 2.1%
same,CYP3A4 messenger RNA expression (induction potential),CYP3A4 [7],Increases in messenger RNA expression
same,CYP1A2 messenger RNA expression (induction potential),CYP1A2,Increases in messenger RNA expression
